Test results reported in US7259146B2, “Neuroprotective peptides” (Ortho-McNeil Pharmaceutical, Inc., priority 2000, dated 2007).
Entries after “also recorded” stand apart in the source; their conditions may differ.

Columns and labels:
PC-12 cells = test: Glutamate toxicity in PC-12 cells (trypan blue exclusion); type: cell-based, rat; details: for protection against glutamate-induced cell death (in words): pre-treatment 24 hr, 200 μM glutamate
Method: PC-12 cells (from a rat Pheochromocytoma) were cultured on poly-D-Lysine coated tissue culture plastic in DMEM containing 10% FBS and 5% Horse serum. To induce the neuronal phenotype in PC-12 cells, serum was removed and the cells were treated with NGF (50 ng/ml). Cells were grown for 7 days in the presence of the NGF then used for experiments. PC-12 cells were cultured as described above. 24 hr prior to insult, cells were treated with rhEPO at concentrations ranging from 1 pm to 1 nm. On the day of the experiment, cells were exposed to 200 μM glutamate for 30 min. Cells were then washed 2 times with fresh media to remove the glutamate and cultured in fresh media containing NGF but no EPO. After 24 hr cells were assayed for viability using a trypan blue exclusion assay. […] Cells were then washed gently with PBS, then fixed with 10% formalin. Cell viability was determined by counting the total number of cells vs. the number of trypan blue positive (dead) cells.

[1] = system: spontaneous hypertensive rats rendered ischemic; test: Experimental model of cerebral ischemia (tandem CCA/MCA occlusion), infarct volume; type: in vivo, rat
Method: Male spontaneous hypertensive rats (Charles River) weighing between 250–300 g were weighed and then anesthetized with ketamine (100 mg/ml)/xylazine (20 mg/ml) cocktail (1.2 ml/kg; i.p.). The level of anesthetic was assessed by corneal reflex (air puff to eye) and leg jerk in response to tail or foot pinch. Once the rat was anesthetized, it was placed on a small animal surgical board and restrained during the surgical procedure. The rat's body temperature was monitored continuously with a rectal probe and maintained at 37° C. with a homeostatic heating pad.
Rats were rendered ischemic by tandem occlusion of the left common carotid artery and the left middle cerebral artery for 2 h followed by 22 h of reperfusion using a modification of the technique described by Brint and co-workers (J. Cereb Blood Flow Metab 8:474–485, 1988). Specifically, the left CCA was isolated through an incision in the ventral surface of the neck. For isolation of the ipsilateral MCA, a second incision was made between the lateral canthus of the left eye and the corresponding external auditory canal to bare the underlying skull. […]
Twenty-hours prior to the onset of ischemia, an osmotic mini-pump (Model 1003D; Alza) filled with vehicle or EPO was placed between the scapula of the rat. […] Twenty-two hours later, the rats were evaluated for behavioral performance, a blood sample was collected for terminal plasma levels of EPO and then the rat was euthanized, brain removed, sectioned and stained for histological analysis.
On Day One, the rats were rendered ischemic as described above. […] Twenty-two hours later, the rats were evaluated for behavioral performance, a blood sample was collected for terminal plasma levels of EPO and then the rat was euthanized, brain removed, sectioned and stained for histological analysis.
On Day One, the rats were rendered ischemic as described above. […] Twenty-two hours later, the rats were evaluated for behavioral performance, a blood sample was collected for terminal plasma levels of EPO and then the rat was euthanized, brain removed, sectioned and stained for histological analysis. […]

Q: For “EPO: purified, recombinant human EPO (rhEPO), formulated and distributed under the trademarks EPREX, ERYPO or PROCRIT”, which “cell survival, Trypan Blue exclusion assay” value (PC-12 cells; 1 to 10 pm given 24 hours prior to glutamate (200 um), p<0.001) is on record?
A: The value was “significantly increased cell survival”.

Q: What about the “peak concentration for the neuroprotective effect” value (PC-12 cells; glutamate toxicity) of the same substance?
A: The value was 10 pm.

Q: What about the “neuroprotective effect at 1 nm” value (PC-12 cells; glutamate toxicity, 1 nm) of the same substance?
A: The value was “no significant effect”.

Q: What about the “dose response curve for the neuroprotective effect” value (PC-12 cells; glutamate toxicity, protection decreasing above 10 pm) of the same substance?
A: The value was “bi-phasic; also recorded: decreased at higher doses”.

Q: What about the “protection against glutamate-induced cell death (in words)” value (PC-12 cells) of the same substance?
A: The value was “significant decrease in cell death”.

Q: What about the “protection against glutamate-induced cell death (in words)” value (PC-12 cells; listed as rhEPO) of the same substance?
A: The value was “protects rat PC12 cells against glutamate-induced cell death”.

Q: And the “infarct volume / protection against ischemic injury” value ([1]; Study I: 132 or 1321 U/day continuous iv infusion via osmotic mini-pump, started before ischemia)?
A: Its value is “significantly reduced infarct volume; also recorded: protects against ischemic injury”.

Q: What about the “protection against ischemic damage” value ([1]; Study II: single iv bolus 15 min post-occlusion, 1000, 2500 or 5000 U/kg) of the same substance?
A: Its value is “did not protect against ischemic damage; also recorded: does not protect against ischemic injury”.

Q: And the “infarct volume / protection against ischemic injury” value ([1]; Study III: repeat iv bolus 2500 U/kg at 15 min, 2 h, 4 h and 6 h post-occlusion)?
A: Its value is “significant decrease in infarct volume; also recorded: protects against ischemic injury”.
